Laboratory results reported in the supplement of paper PMC13380429.
± gives the standard deviation of the averaged measurements.

Key:
Details in all cases: 72 h
Vero E6 [1] = experiment: drug sensitivity score (DSS) for viability; higher = more toxic; extreme values may be limits of the assay
Calu-3 [2] = experiment: as above
HepG2 [3] = experiment: as above
U2OS [4] = experiment: as above
Caco-2 [5] = experiment: as above
Vero E6 [6] = experiment: cell viability relative to DMSO; higher = less toxic
Calu-3 [7] = experiment: as above
HepG2 [8] = experiment: as above
U2OS [9] = experiment: as above
Caco-2 [10] = experiment: as above
Vero E6 [11] = experiment: relative viability EC50 (midpoint between 100% and the lowest measured viability); higher = less toxic
Calu-3 [12] = experiment: as above
HepG2 [13] = experiment: as above
U2OS [14] = experiment: as above
Caco-2 [15] = experiment: as above

SMILES | drug sensitivity score (Vero E6 [1]) | drug sensitivity score (Calu-3 [2]) | drug sensitivity score (HepG2 [3]) | drug sensitivity score (U2OS [4]) | drug sensitivity score (Caco-2 [5]) | cell viability (Vero E6 [6]; 1 nM) | cell viability (Vero E6 [6]; 10 nM) | cell viability (Vero E6 [6]; 100 nM) | cell viability (Vero E6 [6]; 1000 nM) | cell viability (Vero E6 [6]; 10000 nM) | cell viability (Calu-3 [7]; 1 nM) | cell viability (Calu-3 [7]; 10 nM) | cell viability (Calu-3 [7]; 100 nM) | cell viability (Calu-3 [7]; 1000 nM) | cell viability (Calu-3 [7]; 10000 nM) | cell viability (HepG2 [8]; 1 nM) | cell viability (HepG2 [8]; 10 nM) | cell viability (HepG2 [8]; 100 nM) | cell viability (HepG2 [8]; 1000 nM) | cell viability (HepG2 [8]; 10000 nM) | cell viability (U2OS [9]; 1 nM) | cell viability (U2OS [9]; 10 nM) | cell viability (U2OS [9]; 100 nM) | cell viability (U2OS [9]; 1000 nM) | cell viability (U2OS [9]; 10000 nM) | cell viability (Caco-2 [10]; 1 nM) | cell viability (Caco-2 [10]; 10 nM) | cell viability (Caco-2 [10]; 100 nM) | cell viability (Caco-2 [10]; 1000 nM) | cell viability (Caco-2 [10]; 10000 nM) | relative viability EC50 (Vero E6 [11]) | relative viability EC50 (Calu-3 [12]) | relative viability EC50 (HepG2 [13]) | relative viability EC50 (U2OS [14]) | relative viability EC50 (Caco-2 [15])
N=C(N)SCCc1ccc(OCc2ccc([N+](=O)[O-])cc2)cc1 [KB-R7943] | 0 | 0 | 1.7 | 0 | 0 | 99.7% | 101% | 99.2% | 97.4% | 90.4% | 104% | 110% | 93.5% | 99.6% | 98.4% | 96.2% | 108% | 108% | 90.3% | 78.8% | 96.5% | 105% | 98.3% | 105% | 102% | 88.7% | 103% | 99.2% | 97.2% | 94.5% | > 10 µM | > 10 µM | > 10 µM | > 10 µM | > 10 µM
NS(=O)(=O)c1cccc2c1c([N+](=O)[O-])cc1nc(O)c(O)nc12 [NBQX] | 0 | 0 | 0 | 0 | 0 | 103% | 100% | 101% | 101% | 99.8% | 101% | 85.9% | 92.4% | 93.9% | 103% | 101% | 105% | 101% | 92.7% | 106% | 104% | 106% | 98.5% | 103% | 102% | 102% | 99.3% | 97% | 95.6% | 102% | > 10 µM | > 10 µM | > 10 µM | > 10 µM | > 10 µM
COc1ccc(O)cc1 [mequinol] | 0 | 0 | 1.7 | 0 | 0 | 96.8% | 94.1% | 105% | 103% | 95.3% | 104% | 100% | 105% | 94.9% | 92.8% | 103% | 90% | 85.6% | 92.9% | 79.7% | 100% | 109% | 96.8% | 98.7% | 101% | 97.8% | 98.5% | 105% | 104% | 97.9% | > 10 µM | > 10 µM | > 10 µM | > 10 µM | > 10 µM
C[C@H](CCC(=O)O)[C@H]1CC[C@H]2[C@@H]3[C@@H](O)C[C@@H]4C[C@H](O)CC[C@]4(C)[C@H]3CC[C@]12C [ursodiol] | 0 | 0 | 0 | 0 | 0.95 ± 1.3 | 97.3 ± 3.1% | 101 ± 5.3% | 100 ± 6.9% | 104 ± 2.4% | 103 ± 14% | 97% | 96.6% | 102% | 87.2% | 105% | 97.7 ± 6.4% | 107 ± 4.5% | 97.2 ± 8.1% | 108 ± 7.4% | 106 ± 4.2% | 104% | 94.3% | 96.2% | 93.2% | 108% | 106 ± 2.8% | 102 ± 3.9% | 98.4 ± 0.14% | 94.9 ± 5.4% | 85.8 ± 15% | > 10 µM | > 10 µM | > 10 µM | > 10 µM | > 10 µM
CN1CCc2c(c3ccccc3n2Cc2ccccc2)C1 [mebhydrolin] | 0 | 0 | 3.1 | 0 | 0 | 106% | 99.4% | 99.9% | 94.1% | 89.6% | 106% | 95.8% | 106% | 104% | 104% | 94.3% | 102% | 106% | 77% | 94.2% | 96.5% | 102% | 98.5% | 98.2% | 95.3% | 90.3% | 92.8% | 90.4% | 101% | 100% | > 10 µM | > 10 µM | > 10 µM | > 10 µM | > 10 µM
Cn1cc(C2=C(c3cn(C4CCN(Cc5ccccn5)CC4)c4ccccc34)C(=O)NC2=O)c2ccccc21 [enzastaurin] | 0 | 0 | 0 | 0 | 0 | 101% | 107% | 103% | 105% | 98.9% | 109% | 97.3% | 118% | 108% | 109% | 105% | 113% | 94% | 98% | 106% | 102% | 101% | 102% | 97.4% | 101% | 98.6% | 104% | 93.2% | 98.4% | 100% | > 10 µM | > 10 µM | > 10 µM | > 10 µM | > 10 µM
NCCS(=O)(=O)O [taurine] | 0 | 0 | 0 | 0 | 0 | 94.5% | 95.3% | 95.1% | 89.1% | 106% | 100% | 106% | 102% | 97.6% | 101% | 110% | 99.4% | 101% | 102% | 104% | 94.4% | 100% | 98.9% | 103% | 101% | 94.9% | 99.3% | 98% | 95.6% | 103% | > 10 µM | > 10 µM | > 10 µM | > 10 µM | > 10 µM
C[C@]12CCC(=O)C=C1C=C[C@@H]1[C@@H]2CC[C@@]2(C)[C@H]1CC[C@@]21CCC(=O)O1 [canrenone] | 0 | 0 | 0 | 0 | 0 | 99.3% | 106% | 101% | 104% | 101% | 102% | 111% | 98.5% | 104% | 95% | 106% | 94.5% | 89.1% | 95.4% | 97.5% | 101% | 101% | 93.2% | 106% | 95.8% | 96.6% | 100% | 88.4% | 99.1% | 91.7% | > 10 µM | > 10 µM | > 10 µM | > 10 µM | > 10 µM
CO[C@]12C[C@@H](COC(=O)c3cncc(Br)c3)CN(C)[C@@H]1Cc1cn(C)c3cccc2c13 [nicergoline] | 0 | 0 | 0 | 0 | 0 | 93.7% | 101% | 92.6% | 97.4% | 108% | 108% | 112% | 111% | 99.7% | 96.6% | 111% | 101% | 102% | 118% | 98.2% | 97.1% | 94.8% | 100% | 95.4% | 96.8% | 97.7% | 96% | 102% | 95% | 95.4% | > 10 µM | > 10 µM | > 10 µM | > 10 µM | > 10 µM
NS(=O)(=O)Cc1noc2ccccc12 [zonisamide] | 0 | 0 | 0 | 0 | 0 | 101% | 93.3% | 98.5% | 93.8% | 106% | 95.1% | 97.9% | 100% | 115% | 88.1% | 110% | 102% | 98.2% | 94.5% | 102% | 94.1% | 93.9% | 92.4% | 98.4% | 102% | 84.9% | 97.9% | 96.1% | 96.3% | 106% | > 10 µM | > 10 µM | > 10 µM | > 10 µM | > 10 µM
CCCCCCC(=O)OC1CC(C)(C)NC(C)(C)C1 [TMPH] | 0 | 0 | 0 | 0 | 0 | 99% | 96.4% | 101% | 95.2% | 98.4% | 102% | 89.7% | 96% | 108% | 98.7% | 109% | 93.5% | 99.5% | 92.9% | 106% | 99.7% | 101% | 98.9% | 99.6% | 99.1% | 106% | 99.4% | 99.3% | 103% | 102% | > 10 µM | > 10 µM | > 10 µM | > 10 µM | > 10 µM
